Our source for the IC50 values is patent US11420961B2, “Heterocyclic compounds” (Hoffmann-La Roche Inc., priority 2017, dated 2022).

This experiment has as its target T1, MAGL (recombinant wild-type) (Homo sapiens, UniProt Q99685).
T1 sequence (Q99685 1-303): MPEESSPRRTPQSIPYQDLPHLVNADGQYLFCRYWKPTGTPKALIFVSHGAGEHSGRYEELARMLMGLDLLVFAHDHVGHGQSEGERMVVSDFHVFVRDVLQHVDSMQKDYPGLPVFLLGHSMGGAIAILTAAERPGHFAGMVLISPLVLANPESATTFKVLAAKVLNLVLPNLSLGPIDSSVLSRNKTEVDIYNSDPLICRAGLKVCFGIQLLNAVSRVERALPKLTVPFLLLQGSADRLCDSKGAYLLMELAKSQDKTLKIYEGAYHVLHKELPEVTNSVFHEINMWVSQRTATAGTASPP
Nature of the experiment: 4-NPA assay: MAGL inhibitory activity by hydrolysis of 4-nitrophenylacetate, absorbance at 405 nm. The class given is biochemical. Particulars: 4-NPA assay (values without footnote [a]). The procedure: Compounds were profiled for MAGL inhibitory activity by measuring the enzymatic activity of MAGL by following the hydrolysis of 4-nitorphenylacetate resulting in 4-nitrophenol, which absorbs at 405-412 nm (G. G. Muccioli, G. Labar, D M. Lambert, Chem. Bio. Chem. 2008, 9, 2704-2710). This assay is hereinafter abbreviated “4-NPA assay”.
The 4-NPA assay was carried out in 384 well assay plates (black with clear bottom, non-binding surface treated, Corning Ref. 3655) in a total volume of 40 μL. Compound dilutions were made in 100% DMSO (VWR Chemicals 23500.297) in a polypropylene plate in 3-fold dilution steps to give a final concentration range in the assay from 25 μM to 1.7 nM. 1 μL compound dilutions (100% DMSO) were added to 19 μL MAGL (recombinant wild-type) in assay buffer (50 mM TRIS (GIBCO, 15567-027), 1 mM EDTA (Fluka, 03690-100 ml)). The plate was shaked for 1 min at 2000 rpm (Variomag Teleshake) and then incubated for 15 min at RT. To start the reaction, 20 μL 4-Nitrophenlyacetate (Sigma N-8130) in assay buffer with 6% EtOH was added. The final concentrations in the assay were 1 nM MAGL and 300 μM 4-Nitrophenylacetate. After shaking (1 min, 2000 rpm) and 5 min incubation at RT, the absorbance at 405 nm was measured for a first time (Molecular Devices, SpectraMax Paradigm). A second measurement was then done after incubation for 80 min at RT. From the two measurements, the slope was calculated by substracting the first from the second measurement.
As to `O=C1COc2ccc(C(=O)N3CCC(n4cnc5ccccc54)CC3)cc2N1` [Example 49, 6-[4-(benzimidazol-1-yl)piperidine-1-carbonyl]-4H-1,4-benzoxazin-3-one], the IC50 stood at 5540 nM.
For `O=C1COc2ccc(C(=O)N3CCC([C@@H](c4ccccc4)c4ccc(OCCF)cc4)CC3)cc2N1` [Example 80, 6-[4-[(S)-[4-(2-fluoroethoxy)phenyl]-phenyl-methyl]piperidine-1-carbonyl]-4H-1,4-benzoxazin-3-one], the IC50 stood at 0.3 nM.
As for `O=C1COc2ccc(C(=O)N3CCC(c4cc5ccccc5[nH]4)CC3)cc2N1` [Example 40, 6-[4-(1H-indol-2-yl)piperidine-1-carbonyl]-4H-1,4-benzoxazin-3-one], the IC50 was 550 nM.
With `COc1ccc(C(c2ccccn2)C2CCN(C(=O)c3ccc4c(c3)NC(=O)CO4)CC2)cc1OC` (single isomer, unassigned) [Example 117, 6-[4-[(S or R)-(3,4-Dimethoxyphenyl)-(2-pyridyl)methyl]piperidine-1-carbonyl]-4H-1,4-benzoxazin-3-one] the figure was 7.3 nM; with `O=C1COc2ccc(C(=O)N3CCC([C@H](c4ccccc4)c4cccc(OCCOCCF)c4)CC3)cc2N1` [Example 66, 6-[4-[(R)-[3-[2-(2-fluoroethoxy)ethoxy]phenyl]-phenyl-methyl]piperidine-1-carbonyl]-4H-1,4-benzoxazin-3-one], 0.24 nM; with `O=C1COc2ccc(C(=O)N3CCC(c4noc5cc(C(F)(F)F)ccc45)CC3)cc2N1` [Example 50, 6-[4-[6-(trifluoromethyl)-1,2-benzoxazol-3-yl]piperidine-1-carbonyl]-4H-1,4-benzoxazin-3-one], 150 nM.
With `O=C1COc2ccc(C(=O)N3CCN(C(c4ccccc4)c4ccccc4)CC3)cc2N1` [Example 83, 6-(4-benzhydrylpiperazine-1-carbonyl)-4H-1,4-benzoxazin-3-one], the IC50 was 3.09 nM.
With `O=C1COc2ccc(C(=O)N3CCC(C4(c5ccccc5)CC4)CC3)cc2N1` [Example 55, 6-[4-(1-phenylcyclopropyl)piperidine-1-carbonyl]-4H-1,4-benzoxazin-3-one] the figure was 68 nM.
With `O=C1COc2ccc(C(=O)N3CCC(c4c[nH]c5ccccc45)CC3)cc2N1` [Example 18, 6-[4-(1H-indol-3-yl)piperidine-1-carbonyl]-4H-1,4-benzoxazin-3-one] the figure was 33 nM; with `COc1cc(C(=O)N2CCC(C(c3ccccc3)c3ccccc3)CC2)cc2c1CCC(=O)N2` [Example 101, 7-(4-Benzhydrylpiperidine-1-carbonyl)-5-methoxy-3,4-dihydro-1H-quinolin-2-one], 2.7 nM.
With `O=C1COc2ccc(C(=O)N3CCC(C(c4ccc(F)cc4)c4cccc(OCCOCCF)c4)CC3)cc2N1` (single isomer, unassigned) [Example 94, 6-[4-[(S or R)-[3-[2-(2-Fluoroethoxy)ethoxy]phenyl]-(4-fluorophenyl)methyl]piperidine-1-carbonyl]-4H-1,4-benzoxazin-3-one] the figure was 0.4 nM; with `O=C1COc2ccc(C(=O)N3CCC([C@H](c4ccccc4)c4ccc(OCCF)cc4)CC3)cc2N1` [Example 79, 6-[4-[(R)-[4-(2-fluoroethoxy)phenyl]-phenyl-methyl]piperidine-1-carbonyl]-4H-1,4-benzoxazin-3-one], 6 nM; with `O=C1COc2ccc(C(=O)N3CCC(c4nccc(C(F)(F)F)n4)C3)cc2N1` (stereo not drawn) [Example 57, 6-[3-[4-(trifluoromethyl)pyrimidin-2-yl]pyrrolidine-1-carbonyl]-4H-1,4-benzoxazin-3-one], 3020 nM.
Take `O=C1COc2ccc(C(=O)N3CCC(C(c4ccc(F)cc4)c4ccc(OCCOCCF)cc4)CC3)cc2N1` (single isomer, unassigned) [Example 107, 6-[4-[(R or S)-[4-[2-(2-Fluoroethoxy)ethoxy]phenyl]-(4-fluorophenyl)methyl]piperidine-1-carbonyl]-4H-1,4-benzoxazin-3-one]: the IC50 was found to be 0.2 nM.
`O=C1COc2ccc(C(=O)N3CCC(c4cc(-c5ccc(Cl)cc5)[nH]n4)CC3)cc2N1` [Example 44, 6-[4-[5-(4-chlorophenyl)-1H-pyrazol-3-yl]piperidine-1-carbonyl]-4H-1,4-benzoxazin-3-one]: the IC50 is 390 nM.
Consider `O=C1COc2ccc(C(=O)N3CCC(C(c4ccccc4)c4ccc(F)nc4)CC3)cc2N1` (single isomer, unassigned) [Example 102, 6-[4-[(S or R)-(6-Fluoro-3-pyridyl)-phenyl-methyl]piperidine-1-carbonyl]-4H-1,4-benzoxazin-3-one], for which the IC50 was found to be 3.5 nM.
With `O=C1COc2ccc(C(=O)N3CCC([C@H](c4ccccc4)c4cccc(F)c4)CC3)cc2N1` [Example 75, 6-[4-[(R)-(3-fluorophenyl)-phenyl-methyl]piperidine-1-carbonyl]-4H-1,4-benzoxazin-3-one] the figure was 0.43 nM.
With `O=C1COc2ccc(C(=O)N3CCC(C(c4ccccc4)c4ccc(OCCF)cc4)CC3)cc2N1` (stereo not drawn) [Example 73, 6-[4-[[4-(2-fluoroethoxy)phenyl]-penyl-methyl]piperidine-1-carbonyl]-4H-1,4-benzoxazin-3-one] the figure was 0.73 nM; with `COc1cccc(C(c2ccc(F)cc2)C2CCN(C(=O)c3ccc4c(c3)NC(=O)CO4)CC2)c1` (single isomer, unassigned) [Example 120, 6-[4-[(R or S)-(4-Fluorophenyl)-(3-methoxyphenyl)methyl]piperidine-1-carbonyl]-4H-1,4-benzoxazin-3-one], 0.6 nM; with `O=C1COc2ccc(C(=O)N3CCC(C(c4ccccc4)c4cccnc4F)CC3)cc2N1` (stereo not drawn) [Example 78, 6-[4-[(2-fluoro-3-pyridyl)-phenyl-methyl]piperidine-1-carbonyl]-4H-1,4-benzoxazin-3-one], 1.84 nM.
With `O=C1COc2ccc(C(=O)N3CCC(=C(c4ccc(F)cc4)c4ccc(OCCF)cc4)CC3)cc2N1` [Example 93, 6-[4-[[4-(2-Fluoroethoxy)phenyl]-(4-fluorophenyl)methylene]piperidine-1-carbonyl]-4H-1,4-benzoxazin-3-one] the figure was 3.5 nM.
Regarding `O=C1COc2ccc(C(=O)N3CCC([C@@H](c4ccc(F)cc4)c4cccc(OCCF)c4)CC3)cc2N1` [Example 77, 6-[4-[(S)-[3-(2-fluoroethoxy)phenyl]-(4-fluorophenyl)methyl]piperidine-1-carbonyl]-4H-1,4-benzoxazin-3-one], the IC50 is 1.66 nM.
With `O=C1COc2ccc(C(=O)N3CCN(c4cc(Cl)cc(Cl)c4)CC3)cc2N1` [Example 87, 6-[4-(3,5-dichlorophenyl)piperazine-1-carbonyl]-4H-1,4-benzoxazin-3-one] the figure was 1320 nM; with `O=C1COc2cc(F)c(C(=O)N3CCC(C(c4ccccc4)c4ccccc4)CC3)cc2N1` [Example 1, 6-(4-Benzhydrylpiperidine-1-carbonyl)-7-fluoro-4H-1,4-benzoxazin-3-one], 0.95 nM.
With `O=C1COc2ccc(C(=O)N3CCC([C@@H](c4ccccc4)c4cccc(OCCOCCF)c4)CC3)cc2N1` [Example 67, 6-[4-[(S)-[3-[2-(2-fluoroethoxy)ethoxy]phenyl]-phenyl-methyl]piperidine-1-carbonyl]-4H-1,4-benzoxazin-3-one] the figure was 0.65 nM; with `Cc1ccc(C(c2ccc(F)cc2)C2CCN(C(=O)c3ccc4c(c3)NC(=O)CO4)CC2)cc1` (single isomer, unassigned) [Example 113, 6-[4-[(R or S)-(4-Fluorophenyl)-(p-tolyl)methyl]piperidine-1-carbonyl]-4H-1,4-benzoxazin-3-one], 0.4 nM.
With `O=C1COc2ccc(C(=O)N3CCC(C(c4ccc(F)cc4)c4ccc(OCCOCCF)cc4)CC3)cc2N1` (single isomer, unassigned) [Example 108, 6-[4-[(S or R)-[4-[2-(2-Fluoroethoxy)ethoxy]phenyl]-(4-fluorophenyl)methyl]piperidine-1-carbonyl]-4H-1,4-benzoxazin-3-one] the figure was 9.6 nM.
On to `COc1cc(C(=O)N2CCC(C(c3ccc(F)cc3)c3ccc(F)cc3)CC2)cc2c1CCC(=O)N2` [Example 100, 7-[4-[Bis(4-fluorophenyl)methyl]piperidine-1-carbonyl]-5-methoxy-3,4-dihydro-1H-quinolin-2-one], for which the IC50 was 6.4 nM.
With `O=C1COc2ccc(C(=O)N3CCC([C@@H](c4ccccc4)c4ccc(F)cc4)CC3)cc2N1` (single isomer, unassigned) [Example 6] the figure was 0.9 nM.
With `COc1ccc([C@@H](c2ccccc2)C2CCN(C(=O)c3ccc4c(c3)NC(=O)CO4)CC2)cc1OC` (single isomer, unassigned) [Example 9] the figure was 0.3 nM.
